# PubChem BioAssay (NCI)
# Several values for one entry are separate records, joined by “and”; a condition that tells them apart may be missing. Identical values can stand only once.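 Exposure lasted 48 hours, with cells grown in 96-well plates and compounds tested at five concentrations. GI50 marks 50% less growth. The concentration for full growth arrest is given as TGI.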
# Key:
# Assay in all cases: NCI tumour cell line growth inhibition, 48 h
# SF-268 CNS = system: SF-268 CNS
# HCT-116 colon = system: HCT-116 colon
# PC-3 prostate = system: PC-3 prostate
# NCI-H23 lung = system: NCI-H23 lung
# CAKI-1 renal = system: CAKI-1 renal
# A498 renal = system: A498 renal
# OVCAR-4 ovarian = system: OVCAR-4 ovarian
# OVCAR-3 ovarian = system: OVCAR-3 ovarian
# 786-0 renal = system: 786-0 renal
# RPMI-8226 leukemia = system: RPMI-8226 leukemia
SMILES,GI50 (SF-268 CNS),TGI (SF-268 CNS),GI50 (HCT-116 colon),TGI (HCT-116 colon),TGI (PC-3 prostate),GI50 (NCI-H23 lung),TGI (NCI-H23 lung),GI50 (CAKI-1 renal),TGI (CAKI-1 renal),TGI (A498 renal),GI50 (OVCAR-4 ovarian),TGI (OVCAR-4 ovarian),TGI (OVCAR-3 ovarian),GI50 (786-0 renal),TGI (786-0 renal),GI50 (RPMI-8226 leukemia),TGI (RPMI-8226 leukemia),GI50 (PC-3 prostate),GI50 (A498 renal),GI50 (OVCAR-3 ovarian)
CN(CO)c1nc(N(C)CO)nc(N(C)CO)n1,26.2 µM and 18.5 µM,64.1 µM and 70.2 µM,21.7 µM and 11.7 µM,53.2 µM and 47.3 µM,45.6 µM and 51.3 µM,25.4 µM,59.8 µM and 91.7 µM,26.9 µM,77.4 µM and 65.7 µM,60.7 µM and 54 µM,18.9 µM and 23.8 µM,39.1 µM and 55.6 µM,62.1 µM and 63.5 µM,29.6 µM,56.9 µM and 105 µM,27.5 µM,> 91.4 µM and 43.4 µM,,,
N#Cc1ccc(O)c(C2=NCC(c3ccc(-c4ccccc4)cc3)O2)c1 (stereo unspecified),0.499 µM,16.1 µM,0.462 µM,15.2 µM,22.8 µM,0.703 µM,17.2 µM,0.106 µM,13.1 µM,18.5 µM,0.32 µM,10.1 µM,11.7 µM,0.626 µM,11.9 µM,0.416 µM,> 100 µM,0.471 µM,0.402 µM,0.368 µM
C=C1C(=O)O[C@H]2[C@H]1CC/C(CNC(=O)C(C)c1ccc(CC(C)C)cc1)=C\CC[C@@]1(C)O[C@@H]21 (stereo partly specified),1.74 µM,3.58 µM,1.32 µM,2.92 µM,3.82 µM,1.67 µM,3.32 µM,1.69 µM,3.06 µM,8.38 µM,1.66 µM,3.13 µM,2.95 µM,1.76 µM,3.36 µM,2.29 µM,6.92 µM,1.77 µM,2.22 µM,1.54 µM
COc1ccc2c(c1)C(=O)/C(=C/c1cccc(OCC(=O)c3ccc([N+](=O)[O-])cc3)c1)CO2,2.7 µM,7.74 µM,1.33 µM,2.67 µM,7.95 µM,2.52 µM,6.33 µM,3.85 µM,10.4 µM,27.3 µM,4.36 µM,17.2 µM,3.72 µM,2 µM,4.83 µM,1.13 µM,,2.13 µM,14.3 µM,1.94 µM
N#Cc1ccc(C(=O)c2cnn(-c3ccc(F)cc3)c2N)cc1,> 25 µM,> 25 µM,> 25 µM,> 25 µM,> 25 µM,> 25 µM,> 25 µM,> 25 µM,> 25 µM,> 25 µM,> 25 µM,> 25 µM,> 25 µM,> 25 µM,> 25 µM,> 25 µM,> 25 µM,> 25 µM,> 25 µM,> 25 µM
CSc1nc(SC)c2c(C)c(Br)[nH]c2n1,,> 100 µM,,> 100 µM,> 100 µM,,> 100 µM,,> 100 µM,> 100 µM,,> 100 µM,> 100 µM,,> 100 µM,,> 100 µM,,,
CCCCCCCCCCCCCC(=O)NO,,26.9 µM,,> 94.9 µM,28.6 µM,,31.1 µM,,52.4 µM,63.2 µM,,39.3 µM,28 µM,,18.2 µM,,> 100 µM,,,
Cn1c2ccccc2c2c(=O)n(CCCC(=O)NCCc3cnc[nH]3)c3c(-c4ccccc4)nnn3c21,11.7 µM,31.6 µM,5.95 µM,13.8 µM,20.1 µM,13.3 µM,46.9 µM,12 µM,33.4 µM,15.2 µM,10.1 µM,20.5 µM,16.3 µM,2.19 µM,8.15 µM,10.5 µM,28.6 µM,9.01 µM,7.58 µM,8.39 µM
Fc1ccc(-c2c(-c3ccncc3)[nH]c3cccnc23)cc1,> 25 µM,> 25 µM,> 25 µM,> 25 µM,> 25 µM,> 25 µM,> 25 µM,7.43 µM,> 25 µM,> 25 µM,> 25 µM,> 25 µM,> 25 µM,> 25 µM,> 25 µM,> 25 µM,> 25 µM,> 25 µM,> 14.8 µM,> 22.2 µM
CN(CCCCCCCCNc1ccnc2ccccc12)Cc1ccc(-c2ccc(-c3ccc(C#N)cc3)s2)cc1,1.6 µM,3.45 µM,0.184 µM,0.537 µM,2.3 µM,0.84 µM,2.42 µM,1.3 µM,2.65 µM,2.6 µM,0.139 µM,1.99 µM,2.07 µM,1.4 µM,3.25 µM,0.164 µM,0.571 µM,0.766 µM,1.22 µM,0.647 µM
CCCCCCCCCCCCSC1=CC(=O)C=CC1=O,2.24 µM,10.4 µM,6.31 µM,> 43.3 µM,4.21 µM,5.69 µM,21.6 µM,3.26 µM,24.2 µM,24.3 µM,2.17 µM,9 µM,7.91 µM,9.94 µM,> 33.5 µM,0.804 µM,3.46 µM,0.672 µM,7.96 µM,1.98 µM
